What was measured:
[1] = target: T1, Serotonin 1 (5-HT1) receptor (Rattus norvegicus, UniProt P28564+P30940+P19327+P28565)
[2] = target: T2, Serotonin 2 (5-HT2) receptor (Rattus norvegicus, UniProt P30994+P08909+P14842)
[3] = target: T3, 5-hydroxytryptamine receptor 1A (Rattus norvegicus, UniProt P19327)
T3 sequence (P19327 whole entry): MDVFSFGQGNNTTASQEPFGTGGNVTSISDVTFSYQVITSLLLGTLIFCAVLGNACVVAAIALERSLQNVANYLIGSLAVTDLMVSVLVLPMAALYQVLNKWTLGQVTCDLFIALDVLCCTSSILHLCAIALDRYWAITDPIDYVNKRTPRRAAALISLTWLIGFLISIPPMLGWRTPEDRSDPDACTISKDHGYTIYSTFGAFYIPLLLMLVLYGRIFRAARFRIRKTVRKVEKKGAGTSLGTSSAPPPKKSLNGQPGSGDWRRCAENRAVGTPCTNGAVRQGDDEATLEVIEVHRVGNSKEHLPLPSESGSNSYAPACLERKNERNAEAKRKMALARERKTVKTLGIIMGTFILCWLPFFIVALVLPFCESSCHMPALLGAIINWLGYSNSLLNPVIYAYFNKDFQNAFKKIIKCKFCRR

[4] = target: T4, 5-hydroxytryptamine receptor 1B (Rattus norvegicus, UniProt P28564)
[5] = target: T2, Serotonin 2 (5-HT2) receptor; assay: Binding affinity to rat cortical membranes at 5-hydroxytryptamine 2 receptor binding site by using [3H]- DOB as a radioligand
[6] = target: T2, Serotonin 2 (5-HT2) receptor; remark: listed apart in the source
[7] = target: T1, Serotonin 1 (5-HT1) receptor; assay: Binding affinity towards 5-hydroxytryptamine 1 receptor was determined; assay type: protein assay
[8] = target: T4, 5-hydroxytryptamine receptor 1B; remark: listed apart in the source
Description: Binding affinity towards 5-HT1B was determined

[9] = target: T2, Serotonin 2 (5-HT2) receptor; remark: listed apart in the source
[10] = target: T2, Serotonin 2 (5-HT2) receptor; remark: listed apart in the source
[11] = target: T2, Serotonin 2 (5-HT2) receptor; assay: Binding affinity to rat cortical membranes at 5-hydroxytryptamine 2 receptor binding site by using [3H]- DOB as a radioligand.

T4 sequence (P28564 whole entry): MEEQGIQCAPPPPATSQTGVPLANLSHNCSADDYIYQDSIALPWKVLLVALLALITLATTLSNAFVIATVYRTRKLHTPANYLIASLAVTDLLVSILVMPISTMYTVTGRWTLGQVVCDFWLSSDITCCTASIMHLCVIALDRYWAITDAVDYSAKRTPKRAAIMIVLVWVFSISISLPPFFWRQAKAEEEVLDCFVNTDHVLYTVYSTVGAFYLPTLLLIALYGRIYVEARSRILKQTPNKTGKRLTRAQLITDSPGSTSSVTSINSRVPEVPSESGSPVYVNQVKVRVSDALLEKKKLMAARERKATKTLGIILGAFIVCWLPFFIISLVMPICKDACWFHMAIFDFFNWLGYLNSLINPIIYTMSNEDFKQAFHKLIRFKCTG

Row | Structure (SMILES) | Ki [1] [nM] | Ki [2] [nM] | Ki [3] [nM] | Ki [4] [nM] | also measured
1 | COc1ccc(CC(C)N)cc1OC (configuration not stated) | 64600 | 43300 |  |  | 
2 | COc1cc([N+](=O)[O-])c(OC)cc1C[C@@H](C)N | 13200 | 210 |  |  | 
3 | COc1cc(C[C@@H](C)N)c(OC)cc1C | 3550 |  |  |  | 
4 | CCCc1cc(OC)c(CC(C)N)cc1OC (configuration not stated) | 3170 | 69 |  |  | 
5 | COc1ccc(CC(C)N)cc1 (configuration not stated) [PARA-METHOXYAMPHETAMINE] | 79400 | 33600 |  |  | 
6 | NCCc1c[nH]c2cccc(O)c12 |  | 725 | 95 | 1050 | 
7 | COc1cc(OC)c(OC)cc1CC(C)N (configuration not stated) | 46400 |  |  |  | 
8 | CCc1cc(OC)c(CC(C)N)cc1OC (configuration not stated) | 4570 |  |  |  | 
9 | c1ccc2nc(N3CCNCC3)ccc2c1 [QUIPAZINE] |  |  |  | 320 | Ki [5]: 17 nM; Ki [6]: 645 nM
10 | COc1cc(CC(C)N)c(OC)cc1F (configuration not stated) | 3370 | 1110 |  |  | 
11 | CC(C)NCC(O)COc1cccc2[nH]ccc12 (single isomer, unassigned; (-)) [PINDOLOL] |  |  | 20 |  | 
12 | CN[C@H](C)Cc1cc(OC)c(C)cc1OC | 4300 | 260 |  |  | 
13 | NCCc1c[nH]c2ccccc12 [TRYPTAMINE] |  | 2895 | 170 |  | Ki [5]: 50 nM
14 | c1ccc2cc(N3CCNCC3)ccc2c1 |  |  |  |  | Ki [7]: 265 nM
15 | COc1ccc2[nH]cc(C3=CCNCC3)c2c1 [RU-24969] |  |  |  | 4 | 
16 | c1ccc2c(N3CCNCC3)cccc2c1 |  |  |  |  | Ki [7]: 5 nM
17 | C[C@@H](N)Cc1ccc2c(c1)OCO2 | 13000 |  |  |  | 
18 | O=C1c2ccccc2S(=O)(=O)N1CCCCN1CCN(c2ncccn2)CC1 [IPSAPIRONE] |  |  |  |  | IC50 [8]: 26000 nM; IC50 [9]: 10000 nM
19 | COc1ccc2[nH]cc(CCN(C)C)c2c1 [MEBUFOTENIN] | 50 |  | 20 | 90 | 
20 | COc1cc(C[C@@H](C)N)c(OC)cc1Br (stereo in doubt; form 1) | 4200 |  |  |  | 

Row | Structure (SMILES) | Ki [1] [nM] | Ki [2] [nM] | Ki [3] [nM] | Ki [4] [nM] | also measured
21 | NCCc1c[nH]c2ccc(C(N)=O)cc12 |  |  | 0.2 | 5 | 
22 | CN(C)CCc1c[nH]c2ccc(O)cc12 [BUFOTENINE] |  | 380 | 259 | 910 | 
23 | NCCc1c[nH]c2cc(O)ccc12 |  | 11500 | 1590 | 5890 | 
24 | Cc1nc2ccccn2c(=O)c1CCN1CCC(C(=O)c2ccc(F)cc2)CC1 [PIRENPERONE] |  |  | 1700 | 6600 | Ki [10]: 0.3 nM; Ki [6]: 1 nM
25 | CCCN(CCC)C1CCc2cccc(O)c2C1 (configuration not stated) [8-OH-DPAT] |  | 5500 |  |  | Ki [11]: 700 nM
26 | CN(C)CCCSc1ccccc1NC(=O)/C=C/c1ccccc1 [CINANSERIN] | 3500 | 4 |  | 1000 | Ki [5]: 4 nM; Ki [6]: 4 nM
27 | COc1cc(CC(C)N)c(OC)cc1C (configuration not stated) [DOM] | 2890 |  |  |  | 
28 | O=C(CCCN1CCC2(CC1)C(=O)NCN2c1ccccc1)c1ccc(F)cc1 [SPIPERONE] | 160 |  | 40 | 4800 | 
29 | CNC(C)Cc1cc(OC)c(C)cc1OC (configuration not stated) | 3870 | 415 |  |  | 
30 | FC(F)(F)c1cccc(N2CCNCC2)c1 | 20 |  | 1950 | 30 | 
31 | COc1cc([N+](=O)[O-])c(OC)cc1CC(C)N (configuration not stated) | 14100 | 300 |  |  | 
32 | O=C(c1ccc(F)cc1)C1CCN(CCn2c(=O)[nH]c3ccccc3c2=O)CC1 [KETANSERIN] |  |  | 1900 | 1900 | 
33 | COc1cc(C[C@H](C)N)c(OC)cc1Br | 5000 |  |  |  | 
34 | c1ccc(N2CCNCC2)cc1 [PHENYLPIPERAZINE] |  |  |  |  | Ki [7]: 135 nM
35 | CNCCc1c[nH]c2ccc(O)cc12 |  | 180 | 5 | 45 | 
36 | COc1cc(C[C@@H](C)N)c(OC)cc1Br (stereo in doubt; form 2) | 4200 |  |  |  | 
37 | COc1cc(C[C@H](C)N)c(OC)cc1I | 920 | 35 |  |  | 
38 | Clc1cccc(N2CCNCC2)c1 [CHLOROPHENYLPIPERAZINE] |  |  | 2400 | 75 | 
39 | CN1C[C@H](CNC(=O)OCc2ccccc2)C[C@@H]2c3cccc4c3c(cn4C)C[C@H]21 [METERGOLINE] | 20 |  | 6 | 25 | 
40 | CN1C[C@@H](NS(=O)(=O)N(C)C)C[C@@H]2c3cccc4c3c(cn4C)C[C@H]21 [MESULERGINE] |  |  | 300 | 13000 | 

Reference: ChEMBL document CHEMBL1123653 (J Med Chem, 1987)
